The values that follow are results of earlier work, collected in patent US20100137333A1, “ANTIFUNGAL COMPOSITION AND METHODS FOR USING” (priority 2006, published 2010).

The conditions of the series: in vivo.

Regarding “Poly(vinylpyrrolidone/1-hexadecene) [PVPH]”, the dermal toxicity entry is recorded as “no demonstrable dermal toxicity”. “poly(vinylpyrrolidone/1-eicosene) [PVPE]”: the dermal toxicity entry is on record as “no demonstrable dermal toxicity”.
